Test results from ChEMBL document CHEMBL1667735, “Human cytochrome P450 liability studies of trans-dihydronarciclasine: a readily available, potent, and selective cancer cell growth inhibitor” (J Nat Prod, 2011).

Key:
Aromatase = target: T1, Aromatase (Homo sapiens, UniProt P11511); experiment: Inhibition of human CYP19 at 10 uM; type: ADME
T1 sequence (P11511 whole entry): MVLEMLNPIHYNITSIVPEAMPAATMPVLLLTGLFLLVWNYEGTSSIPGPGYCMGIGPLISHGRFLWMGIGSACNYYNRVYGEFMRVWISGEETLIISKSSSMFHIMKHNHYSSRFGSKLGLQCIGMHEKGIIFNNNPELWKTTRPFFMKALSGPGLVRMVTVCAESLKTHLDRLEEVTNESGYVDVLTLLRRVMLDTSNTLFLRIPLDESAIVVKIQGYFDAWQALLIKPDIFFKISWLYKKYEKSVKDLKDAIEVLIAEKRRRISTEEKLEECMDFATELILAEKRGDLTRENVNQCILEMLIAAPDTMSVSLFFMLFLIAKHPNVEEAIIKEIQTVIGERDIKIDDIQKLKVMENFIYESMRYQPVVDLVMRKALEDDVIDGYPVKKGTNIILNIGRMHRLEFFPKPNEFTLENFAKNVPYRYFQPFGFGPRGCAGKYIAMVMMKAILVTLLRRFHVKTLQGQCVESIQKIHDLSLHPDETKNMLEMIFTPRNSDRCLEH

Cytochrome P450 1A1 = target: T2, Cytochrome P450 1A1 (Homo sapiens, UniProt P04798); experiment: Inhibition of human CYP1A1 at 10 uM; type: ADME
T2 sequence (P04798 whole entry): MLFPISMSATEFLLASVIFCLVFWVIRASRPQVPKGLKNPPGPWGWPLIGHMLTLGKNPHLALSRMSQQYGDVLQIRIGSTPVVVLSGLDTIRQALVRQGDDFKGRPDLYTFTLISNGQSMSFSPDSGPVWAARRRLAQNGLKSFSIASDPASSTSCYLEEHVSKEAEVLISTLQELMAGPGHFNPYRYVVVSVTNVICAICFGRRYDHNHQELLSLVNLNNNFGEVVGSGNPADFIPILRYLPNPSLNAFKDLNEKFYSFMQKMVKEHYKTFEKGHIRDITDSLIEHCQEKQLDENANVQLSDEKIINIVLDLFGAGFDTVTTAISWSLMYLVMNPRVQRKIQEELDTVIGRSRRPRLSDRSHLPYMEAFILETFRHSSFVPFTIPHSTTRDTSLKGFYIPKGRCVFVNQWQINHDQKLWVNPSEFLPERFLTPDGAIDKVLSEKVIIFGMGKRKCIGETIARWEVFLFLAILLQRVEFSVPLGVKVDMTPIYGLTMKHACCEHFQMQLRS

O=C1N[C@H]2[C@H](O)[C@H](O)[C@@H](O)C[C@@H]2c2cc3c(c(O)c21)OCO3
inhibition (INH) (Aromatase): Not Active | inhibition (INH) (Cytochrome P450 1A1): Not Active
